Where two headings read alike, the source gives them in different places.
Tests used:
[1] = test system: HaCaT cells (EGFR expressing cell line); test: HaCaT cell proliferation inhibitory activity (CellTiter-Glo, 72 hours); format: cell-based
Procedure, shortened: (§1)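 Three independent repeats measured growth inhibition across 11 concentrations. The top final concentration was 10 μM for SK-BR-3 and BT-474, 5 μM for N-87 and 45 μM for HaCaT. Growth relative to control, read by luminescence, yielded GI50.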

[2] = test system: SK-BR-3 cells (HER2 overexpressing cell line); test: SK-BR-3 cell proliferation inhibitory activity (CellTiter-Glo, 120 hours); format: cell-based
Procedure, shortened: as §1

| Compound | GI50 ([1]; Homo sapiens) [nM] | GI50 ([2]; Homo sapiens) [nM] | GI50 [1] [nM] | GI50 [2] [nM] |
| --- | --- | --- | --- | --- |
| C=CC(=O)N1CCC(Oc2cc3c(Nc4cc(-c5ccoc5C)ccc4OC)ncnc3cc2OC)CC1 [Example 84, 1-(4-((7-methoxy-4-((2-methoxy-5-(2-methylfuran-3-yl)phenyl)amino)quinazolin-6-yl)oxy)piperidin-1-yl)prop-2-en-1-one] | ≤ 150 | ≤ 150 |  |  |
| C=CC(=O)N1CCC(Oc2cc3c(Nc4cc(-c5cnoc5)ccc4OC)ncnc3cc2OC)CC1 [Example 85, 1-(4-((4-((5-(isoxazol-4-yl)-2-methoxyphenyl)amino)-7-methoxy-quinazolin-6-yl)oxy)piperidin-1-yl)prop-2-en-1-one] | ≤ 150 | ≤ 150 |  |  |
| C=CC(=O)N1CCC(Oc2cc3c(Nc4cc(-c5cccs5)c(C)cc4OC)ncnc3cc2OC)CC1 [Example 95, 1-(4-((7-methoxy-4-((2-methoxy-4-methyl-5-(thiophen-2-yl))amino)quinazolin-6-yl)oxy)piperidin-1-yl)prop-2-en-1-one] | ≤ 150 | 150 to 1000 |  |  |
| C=CC(=O)N1CCC(Oc2cc3c(Nc4cc(-c5ccco5)c(C)cc4OC)ncnc3cc2OC)CC1 [Example 96, 1-(4-((4-((5-(furan-2-yl)-2-methoxy-4-methylphenyl)amino)-7-methoxy-quinazolin-6-yl)oxy)piperidin-1-yl)prop-2-en-1-one] | ≤ 150 | 150 to 1000 |  |  |
| C=CC(=O)N1CCC(Oc2cc3c(Nc4cc(-c5ccco5)cnc4OC)ncnc3cc2OC)CC1 [Example 104, 1-(4-((4-((5-(furan-2-yl)-2-methoxy-pyridin-3-yl)amino)-7-methoxy-quinazolin-6-yl)oxy)piperidin-1-yl)prop-2-en-1-one] | ≤ 150 | ≤ 150 |  |  |
| C=CC(=O)N1CCC(Oc2cc3c(Nc4cc(-c5ccco5)ncc4OC)ncnc3cc2OC)CC1 [Example 105, 1-(4-((4-((2-(furan-2-yl)-5-methoxypyridin-4-yl)amino)-7-methoxy-quinazolin-6-yl)oxy)piperidin-1-yl)prop-2-en-1-one] | ≤ 150 | ≤ 150 |  |  |
| C=CC(=O)N1CCC(Oc2cc3c(Nc4cc(-c5ccco5)ccc4OC)ncnc3cc2OC)C(F)(F)C1 (centres unmarked) [Example 111, 1-(3,3-difluoro-4-((4-((5-(furan-2-yl)-2-methoxyphenyl)amino)-7-methoxy-quinazolin-6-yl)oxy)piperidin-1-yl)prop-2-en-1-one] | ≤ 150 | ≤ 150 |  |  |
| C=CC(=O)N1CCC(Oc2cc3c(Nc4cc(-c5ccco5)ccc4OC)ncnc3cc2OC)CC1C(F)(F)F (centres unmarked) [Example 114, 1-(4-((4-((5-(furan-2-yl)-2-methoxyphenyl)amino)-7-methoxy-quinazolin-6-yl)oxy)-2-(trifluoro-methyl)piperidin-1-yl)prop-2-en-1-one] |  |  | ≤ 150 | 150 to 1000 |
| C=CC(=O)N1CC2CC1CC2Oc1cc2c(Nc3cc(-c4ccco4)ccc3OC)ncnc2cc1OC (centres unmarked) [Example 115, 1-(5-((4-((5-(furan-2-yl)-2-methoxyphenyl)amino)-7-methoxy-quinazolin-6-yl)oxy)-2-azabicyclo[2. 2.1]heptan-2-yl)prop-2-en-1-one] | ≤ 150 | 150 to 1000 |  |  |
| C=CC(=O)N1CCC(Oc2cc3c(Nc4cc(-c5ccco5)ccc4OC(F)(F)F)ncnc3cc2OC)CC1 [Example 116, 1-(4-((4-((5-(furan-2-yl)-2-(trifluoro-methoxy)phenyl)amino)-7-methoxy-quinazolin-6-yl)oxy)piperidin-1-yl)prop-2-en-1-one] | ≤ 150 | 150 to 1000 |  |  |
| C=CC(=O)N1CCC(Oc2cc3c(Nc4cc(-c5cccs5)ccc4OCC)ncnc3cc2OC)CC1 [Example 117, 1-(4-((4-((2-ethoxy-5-(thiophen-2-yl)phenyl)amino)-7-methoxy-quinazolin-6-yl)oxy)piperidin-1-yl)prop-2-en-1-one] | ≤ 150 | ≤ 150 |  |  |
| C=CC(=O)N1CCC(Oc2cc3c(Nc4cc(-c5ccco5)ccc4OCC)ncnc3cc2OC)CC1 [Example 118, 1-(4-((4-((2-ethoxy-5-(furan-2-yl)phenyl)amino)-7-methoxy-quinazolin-6-yl)oxy)piperidin-1-yl)prop-2-en-1-one] | ≤ 150 | ≤ 150 |  |  |
| COc1ccc(-c2cccs2)cc1Nc1ncnc2cc(OC)c(OC3CCN(C(=O)/C=C/CN(C)C)CC3)cc12 [Example 119, (E)-4-(dimethylamino) 1-(4-((7-methoxy-4-((2-methoxy-5-(thiophen-2-yl)phenyl)amino)quinazolin-6-yl)oxy)piperidin-1-yl)but-2-en-1-one] | ≤ 150 | 150 to 1000 |  |  |
| C=C(CN(C)C)C(=O)N1CCC(Oc2cc3c(Nc4cc(-c5ccco5)ccc4OC)ncnc3cc2OC)CC1 [Example 121, 2-((dimethylamino)methyl)-1-(4-((4-((5-(furan-2-yl)-2-methoxyphenyl)amino)-7-methoxy-quinazolin-6-yl)oxy)piperidin-1-yl)prop-2-en-1-one] | ≤ 150 | > 1000 |  |  |
| C=CC(=O)N1CCC(Oc2cc3c(Nc4cc(-c5ccco5)ccc4OC)ccnc3cc2OC)CC1 [Example 125, 1-(4-((4-((5-(furan-2-yl)-2-methoxyphenyl)amino)-7-methoxy-quinolin-6-yl)oxy)piperidin-1-yl)prop-2-en-1-one] | 150 to 1000 | 150 to 1000 |  |  |
| C=CC(=O)N1CC(Oc2cc3c(Nc4cc(-c5cccc6ncnn56)ccc4OC)ncnc3cc2OC)C1 [Example 128, 1-(3-((4-((5-([1,2,4]triazolo[1,5-a]pyridin-5-yl)-2-methoxyphenyl)amino)-7-methoxy-quinazolin-6-yl)oxy)azetidin-1-yl)prop-2-en-1-one] | 150 to 1000 | 150 to 1000 |  |  |
| C=CC(=O)N1CCC(Oc2cc3c(Nc4cc(-c5cnco5)ccc4OC)ncnc3cc2OC)CC1 [Example 130, 1-(4-((7-methoxy-4-((2-methoxy-5-(oxazol-5-yl)phenyl)amino)quinazolin-6-yl)oxy)piperidin-1-yl)prop-2-en-1-one] | 150 to 1000 | 150 to 1000 |  |  |
| C=CC(=O)N1CCC(Oc2cc3c(Nc4cc(-c5ccc(C)cc5F)ccc4OC)ncnc3cc2OC)CC1 [Example 131, 1-(4-((4-((2′-fluoro-4-methoxy-4′-methyl-[1,1′-biphenyl]-3-yl)amino)-7-methoxy-quinazolin-6-yl)oxy)piperidin-1-yl)prop-2-en-1-one] | 150 to 1000 | 150 to 1000 |  |  |
| C=CC(=O)N1CC[C@H](Oc2cc3c(Nc4cc(-c5ccco5)ccc4OC)ncnc3cc2OC)C1 [Example 132, (S)-1-(3-((4-((5-(furan-2-yl)-2-methoxyphenyl)amino)-7-methoxy-quinazolin-6-yl)oxy)pyrrolidin-1-yl)prop-2-en-1-one] | 150 to 1000 | > 1000 |  |  |
| C=CC(=O)N1CCC(Oc2cc3c(Nc4cc(-c5ccc(F)nc5)ccc4OC)ncnc3cc2OC)CC1 [Example 133, 1-(4-((4-((5-(6-fluoropyridin-3-yl)-2-methoxyphenyl)amino)-7-methoxy-quinazolin-6-yl)oxy)piperidin-1-yl)prop-2-en-1-one] | 150 to 1000 | 150 to 1000 |  |  |
| C=CC(=O)N1CCC(Oc2cc3c(Nc4cc(-c5cccc(C#N)c5F)ccc4OC)ncnc3cc2OC)CC1 [Example 134, 3′-((6-((1-acryloyl-piperidin-4-yl)oxy)-7-methoxy-quinazolin-4-yl)amino)-2-fluoro-4′-methoxy-[1,1′-biphenyl]-3-carbonitrile] | 150 to 1000 | 150 to 1000 |  |  |
| C=CC(=O)N1CCC(Oc2cc3c(Nc4cc(-c5cccc(Cl)c5F)ccc4OC)ncnc3cc2OC)CC1 [Example 135, 1-(4-((4-((3′-chloro-2′-fluoro-4-methoxy-[1,1′-biphenyl]-3-yl)amino)-7-methoxy-quinazolin-6-yl)oxy)piperidin-1-yl)prop-2-en-1-one] | 150 to 1000 | 150 to 1000 |  |  |
| C=CC(=O)N1CCC(Oc2cc3c(Nc4cc(-c5ccccc5F)ccc4OC)ncnc3cc2OC)CC1 [Example 136, 1-(4-((4-((2′-fluoro-4-methoxy-[1,1′-biphenyl]-3-yl)amino)-7-methoxy-quinazolin-6-yl)oxy)piperidin-1-yl)prop-2-en-1-one] | ≤ 150 | ≤ 150 |  |  |
| C=CC(=O)N1CCC(Oc2cc3c(Nc4cc(-c5cccc(F)c5F)ccc4OC)ncnc3cc2OC)CC1 [Example 137, 1-(4-((4-((2′,3′-difluoro-4-methoxy-[1,1′-biphenyl]-3-yl)amino)-7-methoxy-quinazolin-6-yl)oxy)piperidin-1-yl)prop-2-en-1-one] | ≤ 150 | ≤ 150 |  |  |
| C=CC(=O)N1CCC(F)(F)C(Oc2cc3c(Nc4cc(-c5ccc(F)cc5F)ccc4OC)ncnc3cc2OC)C1 (centres unmarked) [Example 141, 1-(3-((4-((2′,4′-difluoro-4-methoxy-[1,1′-biphenyl]-3-yl)amino)-7-methoxy-quinazolin-6-yl)oxy)-4,4-difluoro-piperidin-1-yl)prop-2-en-1-one] | 150 to 1000 | > 1000 |  |  |
| C=CC(=O)N1CCC(Oc2cc3c(Nc4cc(-c5cccs5)ccc4OC)ncnc3cc2OC)C(F)C1 (centres unmarked) [Example 144, 1-(3-fluoro-4-((7-methoxy-4-((2-methoxy-5-(thiophen-2-yl)phenyl)amino)quinazolin-6-yl)oxy)piperidin-1-yl)prop-2-en-1-one] | ≤ 150 | ≤ 150 |  |  |
| C=CC(=O)N1CCC(Oc2cc3c(Nc4cc(-c5cc(F)cnc5F)ccc4OC)ncnc3cc2OC)CC1 [Example 145, 1-(4-((4-((5-(2,5-difluoropyridin-3-yl)-2-methoxyphenyl)amino)-7-methoxy-quinazolin-6-yl)oxy)piperidin-1-yl)prop-2-en-1-one] | ≤ 150 | ≤ 150 |  |  |
| C=CC(=O)N1CCC(Oc2cc3c(Nc4cc(-c5ccc(F)nc5F)ccc4OC)ncnc3cc2OC)CC1 [Example 147, 1-(4-((4-((5-(2,6-difluoropyridin-3-yl)-2-methoxyphenyl)amino)-7-methoxy-quinazolin-6-yl)oxy)piperidin-1-yl)prop-2-en-1-one] | 150 to 1000 | 150 to 1000 |  |  |

From patent publication US20240246940A1, “HETEROARYL DERIVATIVE COMPOUND AND USE THEREOF” (VORONOI INC., priority 2021, published 2024)
